Results as given in patent publication US20160320368A1, “METHOD AND APPARATUS FOR PREDICTING EFFECTIVE DOSE OR SENSITIVITY OF 5-HYDROXY-1H-IMIDAZOLE-4-CARBOXAMIDE, METHOD FOR DETERMINING AMOUNT OF XANTHOSINE MONOPHOSPHATE, AND TREATMENT AGENT AND METHOD FOR TREATING MYELODYSPLASTIC SYNDROME” (FUJIFILM Corporation, priority 2014, published 2016).
Like-named read-outs stand apart in the source and are kept apart here.

What was measured:
[1] = tested on: XMP in blood cells after hemolysis; experiment: XMP in blood cells after hemolysis (Example 5); format: cell-based; conditions: Homo sapiens, 37° C., 8 hours, non-treated = 100%; for XMP amount (% of non-treated) at 1 µg/mL: Compound A 1 μg/mL; for XMP amount (% of non-treated) at 3 µg/mL: Compound A 3 μg/mL; for XMP amount (% of non-treated) at 10 µg/mL: Compound A 10 μg/mL; for XMP amount (% of non-treated) at 30 µg/mL: Compound A 30 μg/mL; for XMP amount (% of non-treated) at 100 µg/mL: Compound A 100 μg/mL
Protocol: A ¾ hydrate of Compound A was used s a test compound.
450 μL of the blood collected from two healthy individuals by heparinized blood collection (Analyte A and Analyte B) was added to each tube, and 50 μL of a PBS solution of the test compound (0 μg/mL, 10 μg/mL, 30 μg/mL, 100 μg/mL, 300 μg/mL, or 1000 μg/mL in terms of Compound A) for each concentration was added to each tube. The reaction mixture was stirred in an incubator at 37° C. for 8 hours.
BD Pharm Lyse (555899, manufactured by Becton, Dickinson and Company, Inc.) was added to the blood sample obtained in (1) (2 mL of BD Pharm Lyse was added relative to 0.2 mL of blood). After stirring with a vortex mixer, the reaction solution was protected from light and allowed to stand at room temperature for 15 min. After centrifugation at 20° C. and 1000×g for 5 min, the supernatant was removed and suspended in 10 mL of PBS. After centrifugation at 4° C. and 1000×g for 5 min, the supernatant was removed, and 1000 μL of methanol was added to each tube, followed by stirring. Thereafter, 500 μL of ultrapure water was added thereto, followed by further stirring. 600 μL of the reaction solution was divided into each of two tubes, and 400 μL of chloroform was added to each tube. The reaction solution was stirred and then centrifuged at 4° C. and 10000×g for 15 min. 400 μL of the aqueous phase was recovered and added to an ultrafiltration tube (UltrafreeMC-PLHCC 250/pk for Metabolome Analysis (manufactured by Human Metabolome Technologies)), followed by centrifugation at 12° C. and 9200×g for 2 hours. The filtrates were combined and then dried under reduced pressure at 40° C. for 2 hours by using a centrifugal evaporator. After drying, the resulting product was stored in a freezer at −80° C.
(§1) The samples obtained in (2-1) and (2-2) were returned to room temperature and 40 μL of ultrapure water was added to each sample. The mixture was stirred and centrifuged at 4° C. and 21500×g for 5 min. 35 μL of the supernatant was transferred to a vial. After storage at 4° C., XMP in samples was determined in the LC-MS/MS determination instrument, LC conditions and MS/MS conditions described in Example 3 (3).
Amounts of XMP (%) were calculated assuming that amounts of XMP in a non-Compound A treated group are defined as 100%.

[2] = tested on: XMP in human myeloid leukemia cells K562; experiment: XMP in human myeloid leukemia cells K562 (LC-MS/MS); format: cell-based; conditions: 24 hours, non-treated = 100%
Protocol: A ¾ hydrate of Compound A was used as a test compound.
K562 (available from Riken BioResource Center) was used as a human myeloid leukemia cell.
2×10^7 human myeloid leukemia cells were suspended in a culture flask containing 18 mL of an RPMI1640 medium (manufactured by Life Technologies, Inc.). 2 mL of a PBS solution of the test compound (0 μg/mL, 10 μg/mL, 100 μg/mL, or 1000 μg/mL in terms of Compound A) was added to the flask which was then incubated at 37° C. under 5% CO2 for 24 hours. After centrifugation at 20° C. and 300×g for 3 min, the supernatant was removed and suspended in 10 mL of a PBS solution. Then, after centrifugation at 4° C. and 300×g for 5 min, the supernatant was removed. After stirring with addition of 1000 μL of methanol, 500 μL of ultrapure water was added thereto, followed by further stirring. 600 μL of the reaction solution was divided into each of two tubes, and 400 μL of chloroform was added to each tube. The reaction solution was stirred and then centrifuged at 4° C. and 10000×g for 15 min. 400 μL of the aqueous phase was recovered and added to an ultrafiltration tube, followed by centrifugation at 12° C. and 9200×g for 2 hours. The filtrates were combined and then dried under reduced pressure at 40° C. for 2 hours by using a centrifugal evaporator. After drying, the resulting product was stored in a freezer at −80° C.
as §1, with “stored” for “obtained”, “(1)” for “(2-1)”, “(2)” for “(2-2)”
Amounts of XMP (%) were calculated assuming that the XMP value of a non-Compound A treated group (peak area value) is defined as 100%.

[3] = read-out: Amount of XMP (%) Analyte A Hemolysis
[4] = read-out: Amount of XMP (%) Analyte B Hemolysis

SMILES: NC(=O)c1nc[nH]c1O [Compound A, 5-Hydroxy-1H-imidazole-4-carboxamide]
- XMP amount (% of non-treated) at 1 µg/mL [1, 3]: 60%
- XMP amount (% of non-treated) at 1 µg/mL [1, 4]: 51%
- XMP amount (% of non-treated) at 3 µg/mL [1, 3]: 45%
- XMP amount (% of non-treated) at 3 µg/mL [1, 4]: 37%
- XMP amount (% of non-treated) at 10 µg/mL [1, 3]: 37%
- XMP amount (% of non-treated) at 10 µg/mL [1, 4]: 25%
- XMP amount (% of non-treated) at 30 µg/mL [1, 3]: 27%
- XMP amount (% of non-treated) at 30 µg/mL [1, 4]: 18%
- XMP amount (% of non-treated) at 100 µg/mL [1, 3]: 16%
- XMP amount (% of non-treated) at 100 µg/mL [1, 4]: 10%
- Amount of XMP (%) K562 ([2]; Compound A 1 μg/mL): 52%
- Amount of XMP (%) K562 ([2]; Compound A 10 μg/mL): 15%
- Amount of XMP (%) K562 ([2]; Compound A 100 μg/mL): 6%
